Assay results taken from patent US9487566B2, “Method for purifying protein” (KYOWA HAKKO KIRIN CO., LTD, priority 2011, dated 2016).

Columns and labels:
[1] = Storage stability of purified Protein S by SDS-PAGE; type: physicochemical; conditions: held at 37° C. for 3 days vs frozen at −20° C.
Protocol: The Protein S-Example 16 and the Protein S-Comparative Example 3 were held at 37° C. for 3 days, or they were also frozen at −20° C., respectively.

neuraminidase [2] = assay: Capillary electrophoresis of Erythropoietin from culture fluid held with amino acids (bound sialic acids); type: biochemical; conditions: 1 mol/L amino acid solution mixed in equivalent amount, 25° C. for 7 days, compared with purified water / initiation
Protocol: Purified water, 1 mol/L alanine solution, 1 mol/L arginine solution, or 1 mol/L glycine solution was mixed with the culture fluid containing Erythropoietin in an equivalent amount, respectively and then held at 25° C. for 7 days. Thereafter, Erythropoietin was purified using an anti-Erythropoietin antibody-immobilized affinity chromatography column, and the number of sialic acids binding to Erythropoietin was measured by capillary electrophoresis [Biol. Pharm. Bull. 33(9) 1596-1599 (2010)].

neuraminidase [3] = assay: Neuraminidase activity after addition of amino acids to Antithrombin eluate (enzyme assay); type: biochemical, CHO cell
Protocol: The Antithrombin concentration and the neuraminidase activity in the washing fraction before elution and in a particular range of eluate were measured by reversed-phase HPLC method [J. Chromatography B, 662, 209 (1994)] and enzyme assay [Glycobiology, 3, 455 (1993)], respectively.
Arginine hydrochloride or glycine of a final concentration of 0 to 500 mmol/L was added to the aqueous solution containing Antithrombin obtained in the elution process of Comparative Example 1. The neuraminidase activity in each solution was measured in the same manner as in Example 1.

protease = conditions: glycine 0.5 mol/L or arginine 0.4 mol/L final, 25° C. for 6 days
[4] = system: Neuraminidase (manufactured by Nacalai Tesque); conditions: final concentration 1.0 mol/L, neuraminidase 0.0005 U/mL, 37° C. for 3 hours
Protocol: As a control group, purified water was added in the same amount as the neuraminidase. Glycine was added at a final concentration of 1.0 mol/L, or purified water as a control, and held at 37° C. for 3 hours.

Row | Compound | change on storage (cleaved form, SDS-PAGE) [1] | number of sialic acids binding to Erythropoietin after holding (neuraminidase [2]) | relative neuraminidase activity (activity at 0 mmol/L amino acid regarded as 1.0) (neuraminidase [3]; addition of 100 mmol/L) | conversion of Protein S into the cleaved form (protease) | further results
1 | Protein S-Comparative Example 3: Protein S obtained by the method described in Comparative Example 3 (purified without using the mixed mode carrier) | the cleaved form was increased | – | – | – | –
2 | C[C@H](N)C(=O)O [alanine] | – | the number of bound sialic acids was maintained | – | – | –
3 | N=C(N)NCCC[C@H](N)C(=O)O [arginine] | – | the number of bound sialic acids was equivalent | about 0.2 | conversion of Protein S into the cleaved form was inhibited | relative neuraminidase activity (activity at 0 mmol/L amino acid regarded as 1.0) (neuraminidase [3]; addition of 200 mmol/L or more, below the detection limit): 0
4 | Protein S-Example 16: Protein S obtained by the method described in Example 16 (purified using the mixed mode carrier) | no change | – | – | – | –
5 | NCC(=O)O [glycine] | – | the number of bound sialic acids was maintained | about 0.2 | conversion of Protein S into the cleaved form was inhibited | electrophoretic profile of Protein S (basic shift by loss of sialic acid) [4]: major bands were found in a more acidic region than the band of purified water-added one; relative neuraminidase activity (activity at 0 mmol/L amino acid regarded as 1.0) (neuraminidase [3]; addition of 300 mmol/L or more, below the detection limit): 0
